Consider three compounds from patent US6451734B1, “Substituted 3-benzylpyrazoles and their use as herbicides” (BASF Aktiengesellschaft, priority 1996, dated 2002).

Common to all, as to type: in vivo
Test [1] is described as follows: effect on the plasma glucose and insulin level in diabetes mice. Particulars: homocygotic diabetes mice, not fed for one night; by pharyngeal tube in 0.25% hydroxyethylcellulose; blood collected 2 and 4 hours after treatment. The text has this: The animals which were used in the experiments described below received, in addition to sufficient water, a standard feed (“Rat and Mouse Breeder and Grower Diet” supplied by Special Diets Services Ltd., UK). Effect of the active compounds according to the invention on the plasma glucose and insulin level The laboratory animals used were homocygotic diabetes mice (40—60 g, supplied by Harlan UK) which were initially not fed for one night and then separated into different groups. The active compounds were administered as a solution or suspension in 0.25% strength aqueous hydroxyethylcellulose (CELLOSIZE supplied by UCC) using a pharyngeal tube, namely at 5 ml/kg of body weight. 2 and 4 hours after the treatment, approximately 50 μl each of blood were collected from the tip of the tail in capillary tubes for the collection of blood containing lithium heparin (supplied by Sarstedt, “Microvette CB300LH”). Plasma samples (5 μl) were immediately tested for their glucose content. A further 10 μl were stored in an Eppendorf tube at (−70)° C. until the plasma glucose and insulin content were determined.

The nature of test [2]: determination of glucose elimination via urine in CD1-mice. The procedure: The animals which were used in the experiments described below received, in addition to sufficient water, a standard feed (“Rat and Mouse Breeder and Grower Diet” supplied by Special Diets Services Ltd., UK). Determination of Glucose Elimination via Urine In this experiment, 4 groups of 5 CD1-mice each (20—25 g, supplied by Harlan, UK) were transferred into metabolism cages and initially acclimatized for 24 hours. By pharyngeal tube, animals were then administered 100 mg/kg of body weight of the active compound IIIc.1, dissolved or suspended in 0.25% strength aqueous hydroxyethylcellulose (CELLOSIZE supplied by UCC). For comparison, 0.25% strength aqueous Cellosize without active compound was administered to the other 10 mice. The urine was subsequently collected for 24 hours and its total volume was measured. In each case […] of urine were examined for their glucose content.

A further test concerns Amaranthus retroflexus. Kind of test: greenhouse experiment, post-emergence treatment (herbicidal activity). Particulars: Amaranthus retroflexus (redroot pigweed), 0.125 kg/ha of a.s. The text has this:
(§1) The herbicidal activity of the substituted 3-benzylpyrazoles I was demostrated by the following greenhouse experiments: The culture containers used were plastic flowerpots containing loamy soil with approximately 3.0% of humus as the substrate. The seeds of the test plants were sown separately for each species. For the post-emergence treatment, the test plants were first grown to a plant height of 3 to 15 cm, depending on the plant habit, and only then treated with the active ingredients which had been suspended or emulsified in water. The test plants for this purpose were either sown directly and grown in the same containers, or they were first grown separately as seedlings and transplanted into the test containers a few days prior to treatment. The rate of application for the post-emergence treatment was 0.125 kg/ha of a.s. (active substance). Depending on the species, the plants were kept at 10-25° C. or 20-35° C. The test period extended over 2 to 4 weeks. During this time, the plants were tended, and their response to the individual treatments was evaluated. Evaluation was carried out using a scale from 0 to 100. 100 means no emergence of the plants, or complete destruction of at least the aerial parts, and 0 means no damage, or normal course of growth. The plants used in the greenhouse experiments belonged to the following species: [table]

Another test relates to Abutilon theophrasti. Described as above. Particulars: Abutilon theophrasti (velvet leaf), 0.125 kg/ha of a.s.
From the text: as §1

The next test concerns Setaria viridis. The test is described as above. Particulars: Setaria viridis (green foxtail), 0.125 kg/ha of a.s.
From the text: as §1

Another test relates to Solanum nigrum. Described as above. Particulars: Solanum nigrum (black nightshade), 0.125 kg/ha of a.s.
From the text: as §1

The mark [3] stands for this setting: 10 CD1-mice, 100 mg/kg of body weight by pharyngeal tube, urine collected for 24 hours.

`Cn1nc(Cc2cccc(Cl)c2Cl)cc1OC(F)F` [Ic.1, 3-(2,3-Dichlorobenzyl)-5-difluoromethoxy-1-methyl-1H-pyrazole]: the plasma insulin level result in test [1] is on record as “substantially unchanged”.

For `Cn1c(=O)cc(Cc2cccc(Cl)c2Cl)n1C(F)F` [IIIc.1, 5-(2,3-Dichlorobenzyl)-1-difluoromethyl-1,2-dihydro-2-methyl-3H-pyrazol-3-one], in test [2] (setting [3]), the “glucose concentration of the urine” value is 17.62 mmol/L and the “total elimination of glucose” value was determined as 70.48 µmol. Moreover, the “increase of the elimination of glucose (via urine)” value in test [2] (CD1-mice, 100 mg/kg by pharyngeal tube, 24 hours, versus Cellosize without active compound) came to 52%. Moreover, the plasma insulin level entry in test [1] is “substantially unchanged”.

As to `Cn1nc(Cc2cccc(Cl)c2Cl)c(Cl)c1OC(F)F` [Ia.1, 4-Chloro-3-(2,3-dichlorobenzyl)-5-difluoromethoxy-1-methyl-1H-pyrazole], the herbicidal activity entry in the test on Amaranthus retroflexus, in the test with Abutilon theophrasti, in the test with Setaria viridis and in the test with Solanum nigrum was “very good” each time. Also, in test [1], the plasma insulin level result is recorded as “substantially unchanged”.
